The target in assay [1] is T1, COS-7/AMY3 (human calcitonin receptor (CTR) and RAMP3) (Homo sapiens, UniProt O60896+P30988).
T1 construct: expressed in transfected cells; host or cells: COS-7
Nature of the assay: Amylin Receptor cAMP Assay II. In kind it is cell-based. The settings on record: values marked **: Amylin Receptor cAMP Assay II; COS-7/AMY3 cells, cAMP dynamic 2 kit, 30 min; read-out: Amylin Receptor cAMP Stimulation Activity: EC50. The source says:
AMYRs are heterodimers of the class B calcitonin (CT) G-protein-coupled receptor (CTR) and receptor activity-modifying proteins (RAMPs). All three RAMPs can interact with the CTR and form AMY1, AMY2, AMY3 with RAMP1, RAMP2 and RAMP3, respectively. Like other class B1 GPCRs, the CT receptor family is canonically coupled to Gs-mediated cAMP production, and measurement of cAMP accumulation has been the primary assay used to determine peptide selectivity and potency.
(§1) To optimize functional activity directed toward Gαs coupling, COS-7 cells were stably transfected with human calcitonin receptor (CTR) and RAMP3, simultaneously. 100×concentration of compound working solutions were prepared with 4-fold serial dilution in 384-well Echo LDV plate (Labcyte, Cat #LP-0200-BC). 200 nL/well 100×concentration of compound working solutions were moved to 384-well white microplate (Perkin Elmer, Cat #6007680) using Labcyte ECHO550. 1×10^5 cells/mL COS-7/AMY3 cell suspensions prepared with assay buffer [HBSS containing 20 mM HEPES (Gibco, Cat #15630-080), 0.5 mM IBMX (Sigma, Cat #15879) and 0.1% Casein (Sigma, Cat #C4765)], 20 μL cell suspensions were added to each well of previous generated assay plate which already contains 200 nL compound at 100×concentration using ThermoFisher Multidrop Combi (2000 cells/well). Seal the plate and incubate at 37° C. with 5% CO2 for 30 min.
(§2) After incubation, the cAMP assay signal was generated using cAMP dynamic 2 kit (Revvity, Cat #62AM4PEC). 10 μL cAMP-d2 working solution was added to each well, followed by 10 μL Anti-cAMP antibody-cryptate working solution which was added to each well using CERTUS FLEX LIQUID […]. The samples were then incubated at room temperature for 1 hour protected from light. the fluorescence was read at 665 and 615 nm with Reader PerkinElmer EnVision 2105. % Activity=100−(mean RLU of test sample−mean RLU of positive control)/(mean RLU of vehicle control−mean RLU of positive control)×100 Calcitonin Receptor (CTR) cAMP Assay

Assay [2] addresses T2, human calcitonin receptor (CTR) (Homo sapiens, UniProt P30988).
T2 construct: expressed in transfected cells; host or cells: COS-7 (COS7-human CTR Clone #2)
T2 sequence (P30988 25-474): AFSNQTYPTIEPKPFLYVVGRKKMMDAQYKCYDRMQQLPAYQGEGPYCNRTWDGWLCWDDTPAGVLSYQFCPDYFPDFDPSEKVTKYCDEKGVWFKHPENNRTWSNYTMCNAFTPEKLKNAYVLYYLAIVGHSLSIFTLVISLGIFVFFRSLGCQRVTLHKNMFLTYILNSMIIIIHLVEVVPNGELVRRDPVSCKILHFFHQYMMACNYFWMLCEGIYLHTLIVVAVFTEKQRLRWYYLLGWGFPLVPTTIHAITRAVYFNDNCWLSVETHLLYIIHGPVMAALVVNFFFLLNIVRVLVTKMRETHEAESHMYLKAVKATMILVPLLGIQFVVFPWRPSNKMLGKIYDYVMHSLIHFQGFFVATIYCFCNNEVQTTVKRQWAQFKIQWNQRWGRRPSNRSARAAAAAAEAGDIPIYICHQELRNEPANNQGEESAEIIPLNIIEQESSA
The experiment in a line: Calcitonin Receptor (CTR) cAMP Assay. In kind it is cell-based. Particulars: COS7-human CTR Clone #2 stable cell line, cAMP dynamic 2 kit, 30 min; read-out: Calcitonin Receptor cAMP Stimulation Activity: EC50. Here is the method:
as §2
The calcitonin receptor (CTR) belongs to the subfamily of GPCRs known as the secretin or ‘B’ family of GPCRs. Like other class B1 GPCRs, the CT receptor family is canonically coupled to Gs-mediated cAMP production, and measurement of cAMP accumulation has been the primary assay used to determine peptide selectivity and potency.
as §1, with “to create COS7-human CTR Clone #2 stable cell line.” for “and RAMP3, simultaneously.”, “COS7-human CTR Clone #2” for “COS-7/AMY3”
After incubation, the cAMP assay signal was generated using cAMP dynamic 2 kit (Revvity, Cat #62AM4PEC). 10 μL cAMP-d2 working solution was added to each well, followed by 10 μL Anti-cAMP antibody-cryptate working solution which was added to each well using CERTUS FLEX LIQUID […]. The samples were then incubated at room temperature for 1 hour protected from light. the fluorescence was read at 665 and 615 nm with Reader PerkinElmer EnVision 2105. % Activity=100−(mean RLU of test sample−mean RLU of positive control)/(mean RLU of vehicle control−mean RLU of positive control)×100

Broadly, the EC50 is the concentration that produces a half-maximal response.

T1 sequence (O60896 24-148, one chain of several): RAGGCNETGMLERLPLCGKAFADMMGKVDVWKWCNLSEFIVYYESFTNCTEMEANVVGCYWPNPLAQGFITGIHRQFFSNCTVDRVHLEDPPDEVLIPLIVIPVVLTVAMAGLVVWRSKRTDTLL

`CC(c1ccc(C#N)cn1)n1c(=O)oc2cc(-c3c4c(nc(CCc5ccc(F)cc5)c3-c3n[nH]c(=O)o3)[C@@H]3CCCN3C4=O)ccc21` (stereo partly drawn) [Compound 160, 6-[1-[6-[(9aS)-2-[2-(4-fluorophenyl)ethyl]-5-oxo-3-(2-oxo-3H-1,3,4-oxadiazol-5-yl)-7,8,9,9a-tetrahydropyrido[2,3-a]pyrrolizin-4-yl]-2-oxo-1,3-benzoxazol-3-yl]ethyl]pyridine-3-carbonitrile]: the EC50 in assay [1] worked out at 12.2 nM; in assay [2], 0.724 nM.
For `N#Cc1ccc(Cn2ccc3cc(-c4c(-c5n[nH]c(=O)o5)c(CCc5ccc(F)cc5)nc5c4c(=O)n4n5CCC4)cnc32)cc1F` [Compound 161], in that order: 35.8 nM and 1.82 nM.
The like results for `N#Cc1ccc(Cn2c(=O)oc3cc(-c4c(-c5n[nH]c(=O)o5)c(CCc5ccc(F)cc5)nc5c4c(=O)n4n5CCC4)ccc32)cc1F` [Compound 162, 2-fluoro-4-((6-(2-(4-fluorophenethyl)-5-oxo-3-(5-oxo-4,5-dihydro-1,3,4-oxadiazol-2-yl)-8,9-dihydro-5H,7H-pyrazolo[1′,2′:1,2]pyrazolo[3,4-b]pyridin-4-yl)-2-oxobenzo[d]oxazol-3(2H)-yl)methyl)benzonitrile] were, in that order, 3.71 nM and 0.157 nM.
With `CC(C)C1CS(=O)(=O)c2c1nc(CCc1ccc(F)cc1)c(-c1n[nH]c(=O)o1)c2-c1ccc2c(c1)oc(=O)n2Cc1ccc(C#N)cn1` (centres unmarked) [Compound 163, 6-((6-(5-(4-fluorophenethyl)-3-isopropyl-1,1-dioxido-6-(5-oxo-4,5-dihydro-1,3,4-oxadiazol-2-yl)-2,3-dihydrothieno[3,2-b]pyridin-7-yl)-2-oxobenzo[d]oxazol-3(2H)-yl)methyl)nicotinonitrile], the EC50 was determined as 11.2 nM in assay [1] and 0.588 nM in assay [2].
On to `O=C1c2c(nc(CCc3ccc(F)cc3)c(-c3n[nH]c(=O)o3)c2-c2ccc3c(c2)oc(=O)n3Cc2ccc(F)cn2)[C@@H]2CCCN12` [Compound 164, (S)-6-(2-(4-fluorophenethyl)-5-oxo-3-(5-oxo-4,5-dihydro-1,3,4-oxadiazol-2-yl)-7,8,9,9a-tetrahydro-5H-pyrido[2,3-a]pyrrolizin-4-yl)-3-((5-fluoropyridin-2-yl)methyl)benzo[d]oxazol-2(3H)-one], for which the figures for the EC50 in assay [1] and in assay [2] were 39.9 nM and 4.28 nM, respectively.
The like results for `N#Cc1cc2c(cc1F)[C@H](Nc1nccc3cc(-c4c5c(nc(CCc6ccc(F)cc6)c4-c4n[nH]c(=O)o4)[C@@H]4CCCN4C5=O)sc13)CC2` [Compound 165, (R)-6-fluoro-1-((2-((S)-2-(4-fluorophenethyl)-5-oxo-3-(5-oxo-4,5-dihydro-1,3,4-oxadiazol-2-yl)-7,8,9,9a-tetrahydro-5H-pyrido[2,3-a]pyrrolizin-4-yl)thieno[2,3-c]pyridin-7-yl)amino)-2,3-dihydro-1H-indene-5-carbonitrile] were, in that order, 6.73 nM and 0.539 nM.
For `O=C1c2c(nc(CCc3ccc(F)cc3)c(-c3n[nH]c(=O)o3)c2-c2cc3ccnc(N[C@@H]4CCc5cc(F)c(F)cc54)c3s2)[C@@H]2CCCN12` [Compound 166, 5-((S)-4-(7-(((R)-5,6-difluoro-2,3-dihydro-1H-inden-1-yl)amino)thieno[2,3-c]pyridin-2-yl)-2-(4-fluorophenethyl)-5-oxo-7,8,9,9a-tetrahydro-5H-pyrido[2,3-a]pyrrolizin-3-yl)-1,3,4-oxadiazol-2(3H)-one], in that order: 1.38 nM and 0.0875 nM.
Regarding `COc1c(F)ccc2c1CC[C@H]2Nc1nccc2cc(-c3c4c(nc(CCc5ccc(F)cc5)c3-c3n[nH]c(=O)o3)[C@@H]3CCCN3C4=O)sc12` [Compound 167, 5-((S)-4-(7-(((R)-5-fluoro-4-methoxy-2,3-dihydro-1H-inden-1-yl)amino)thieno[2,3-c]pyridin-2-yl)-2-(4-fluorophenethyl)-5-oxo-7,8,9,9a-tetrahydro-5H-pyrido[2,3-a]pyrrolizin-3-yl)-1,3,4-oxadiazol-2(3H)-one], the EC50 is 4.38 nM in assay [1] and 0.13 nM in assay [2].
For `O=C1c2c(nc(CCc3ccc(F)cc3)c(-c3n[nH]c(=O)o3)c2-c2cc3ccnc(N[C@@H]4CCc5c4ccc(F)c5Cl)c3s2)[C@@H]2CCCN12` [Compound 168, 5-((S)-4-(7-(((R)-4-chloro-5-fluoro-2,3-dihydro-1H-inden-1-yl)amino)thieno[2,3-c]pyridin-2-yl)-2-(4-fluorophenethyl)-5-oxo-7,8,9,9a-tetrahydro-5H-pyrido[2,3-a]pyrrolizin-3-yl)-1,3,4-oxadiazol-2(3H)-one], in that order: 15.3 nM and 0.341 nM.
`O=C1c2c(nc(CCc3ccc(F)cc3)c(-c3n[nH]c(=O)o3)c2-c2cc3ccnc(N[C@@H]4COc5ccccc54)c3s2)[C@@H]2CCCN12` [Compound 169, 5-((S)-4-(7-(((S)-2,3-dihydrobenzofuran-3-yl)amino)thieno[2,3-c]pyridin-2-yl)-2-(4-fluorophenethyl)-5-oxo-7,8,9,9a-tetrahydro-5H-pyrido[2,3-a]pyrrolizin-3-yl)-1,3,4-oxadiazol-2(3H)-one]: the EC50 came to 254 nM in assay [1] and 10.2 nM in assay [2].
`O=C1c2c(nc(CCc3ccc(F)cc3)c(-c3n[nH]c(=O)o3)c2-c2cc3ccnc(N[C@@H]4CCOc5ccccc54)c3s2)[C@@H]2CCCN12` [Compound 170]: the results for the EC50 in assay [1] and in assay [2] were 33.1 nM and 1.19 nM, respectively.
The like results for `COc1cccc2c1CC[C@H]2Nc1nccc2cc(-c3c4c(nc(CCc5cccc(C(F)(F)F)c5)c3-c3n[nH]c(=O)o3)[C@@H]3CCCN3C4=O)sc12` [Compound 171, 5-((S)-4-(7-(((R)-4-methoxy-2,3-dihydro-1H-inden-1-yl)amino)thieno[2,3-c]pyridin-2-yl)-5-oxo-2-(3-(trifluoromethyl)phenethyl)-7,8,9,9a-tetrahydro-5H-pyrido[2,3-a]pyrrolizin-3-yl)-1,3,4-oxadiazol-2(3H)-one] were, in that order, 71.4 nM and 1.52 nM.
Turning to `COc1cccc2c1CC[C@H]2Nc1nccc2cc(-c3c4c(nc(CCC5CCCCC5)c3-c3n[nH]c(=O)o3)[C@@H]3CCCN3C4=O)sc12` [Compound 172, 5-((S)-2-(2-cyclohexylethyl)-4-(7-(((R)-4-methoxy-2,3-dihydro-1H-inden-1-yl)amino)thieno[2,3-c]pyridin-2-yl)-5-oxo-7,8,9,9a-tetrahydro-5H-pyrido[2,3-a]pyrrolizin-3-yl)-1,3,4-oxadiazol-2(3H)-one], the EC50 in assay [1] is 51.1 nM; in assay [2], 2.06 nM.

The values above are taken from patent US12486269B2 (Aconcagua Bio, Inc., priority 2024, dated 2025).
